Laboratory results: publication PMC5161367, “Discovery of Novel Small Molecule Inhibitors of VEGF Expression in Tumor Cells Using a Cell-Based High Throughput Screening Platform” (PLoS ONE, 2016)

What was measured:
[1] = Cytotoxicity, CellTiter-Glo, PBMC; format: cell-based; details: human, peripheral blood mononuclear cells (PBMC)
Description: The cytotoxicity of compounds was determined in peripheral blood mononuclear cells (PBMCs) and primary human foreskin fibroblasts, both purchased frozen from AllCells, Inc, CA. Cells were incubated with test compound at various concentrations in triplicate for a period of 3 days in 96-well plates. The cytotoxicity or inhibition of cell proliferation was determined using a standard CellTiter-Glo® Luminescent Cell Viability Assay (Promega, Madison, WI) that measures total cellular adenosine triphosphate (ATP) concentration as a function of cell viability. In addition, cytotoxicity assays were also performed in HeLa cells in parallel with VEGF ELISA to ensure that the inhibition of VEGF production in HeLa cells was not due to cytotoxicity.

[2] = system: VEGF 5'- and 3'-UTR luciferase reporter; assay: VEGF GEMS luciferase reporter (B9 cells, VEGF UTRs) vs control reporter (B12 cells); format: cell-based, human
Description: Luciferase assays were conducted using the Bright-Glo assay (Promega, Madison, WI), following the manufacturer’s instructions. The plates were incubated for 5 minutes at room temperature with gentle shaking before determining the level of luciferase activity. For assays done in 96-well plates, luciferase activity was monitored using a Topcount microplate reader (Perkin Elmer, USA). For HTS and assays done in 384-well plates, luciferase activity was determined using a ViewLux microplate reader (Perkin Elmer, USA).
A high throughput screen (HTS) was performed with a stable cell line designated B9 that was generated by transfecting the VEGF GEMS™ vector (Fig 1a) into HEK293 cells. Log phase growing B9 cells were trypsinized and re-suspended in growth medium containing 1x penicillin and streptomycin (Invitrogen) to form a single-cell suspension. Cell counts were determined using a hemocytometer, with cell viability greater than 98% for all assays. B9 cells were seeded (10,000 cells per well) in 384-well plates and incubated with test compound at a final concentration of 7.5 μM in duplicate in a 40 μL reaction. The final concentration of DMSO was 0.5%. A serial dilution (0.078 to 20 μM) of puromycin was included in each plate as positive control for the nonspecific inhibition of translation. After incubation for 20 hours at 37°C, 5% CO2, 20 μL of Bright-Glo substrate (Promega) were added to each well. Plates were incubated for 5 minutes at room temperature with gentle shaking. Firefly luciferase luminescence was measured on the ViewLux (PerkinElmer). Data were loaded into ActivityBase (IDBS) for analysis. The HTS plate configuration is shown in S1 Fig. The threshold for hits was set at mean + 3x SD (standard deviation). Statistical robustness was assessed by Z’-factor, defined as 1-((3 x (SDblank-control + SDDMSO-control)/(Meanblank-control + MeanDMSO-control)), where the blank control represents assay background and the DMSO control represents total signal from the DMSO treated samples.
To address the possibility that the compounds identified in the screen function by modulating general transcription processes rather than targeting processes regulated by the 5’- and/or 3’-UTRs of VEGF mRNA, we generated an additional cell line, designated as B12 that harbors the luciferase reporter flanked with control UTRs from the plasmid pCDNA3.1 vector instead of those from VEGF mRNA. Compounds that reduce luciferase activity in both cell lines are considered to be general inhibitors of transcription or translation. Therefore, those compounds that inhibit luciferase expression in B9 but not in B12 cells act through the 5’- and/or 3’-UTRs of the VEGF transcript. A subset of the compounds selective for the VEGF UTRs was identified.

[3] = system: hVEGF; assay: HT1080 xenograft pharmacodynamic model, intratumor hVEGF; format: in vivo, mouse (human tumor xenograft); details: twice per day for 7 days
Description: (§1) Log phase growing tumor cells (5–10 x 10^6 cells/mouse, depending on the cell line) were implanted subcutaneously in athymic nude mice. When the average tumor size reached the indicated size, mice were randomly divided into groups and administered vehicle (5% DMSO/ 95% PEG-300) or test compounds by oral gavage. Tumor volumes were measured twice per week using digital calipers and body weights once per week. Tumor volume was determined according to the formula: L x (W)^2/2, where L is the longest dimension and W is the shortest dimension.
At the end of experiments, the tumors were excised from mice and homogenized on ice using a Powergen homogenizer fitted with Omni-Tip disposable/reusable probes (both from Fisher Scientific) in Tris-HCl buffer containing a cocktail of proteinase inhibitors. Intra-tumor human VEGF levels, as well as levels of other growth factors or proteins, were subsequently measured using commercially available ELISA kits (R&D Systems). Protein concentrations of the homogenates were determined using the Bradford protein assay (Bio-Rad) and intratumor growth factor levels were normalized to the total protein concentration.
(§2) Among the VEGF UTR-selective compounds identified, PTC-858 is a potent hit with adequate pharmaceutical properties (data not shown). These pharmaceutical properties enabled the testing of this compound in a human xenograft pharmacodynamic model in mice to measure modulation of intratumor VEGF levels. Established human HT1080 fibrosarcoma tumors grown as a xenograft in nude mice were treated with PTC-858 orally at a dose of 200 mg/kg, twice per day for 7 days. […] In addition, tumor growth was reduced by 25% after only 7 days of treatment.

[4] = system: HT1080 human tumor xenografts; assay: HT1080 human tumor xenograft growth in athymic nude mice; format: in vivo, mouse
Description: as §1
as §2, with “These” for “Among the VEGF UTR-selective compounds identified, PTC-858 is a potent hit with adequate pharmaceutical properties (data not shown). These”
Tumors in vehicle-treated mice reached an average volume of 1 cm^3 after 15 days, while tumors in mice treated with 10 mg/kg PTC-510 reached the same volume in about 40 days, a tumor growth delay of 25 days.

Structure (SMILES) | CC50 at 72 hours ([1]; 72 hours, CellTiter-Glo) | selectivity, VEGF reporter (B9) vs control reporter B12 cells ([2]; HEK293 stable luciferase reporter lines) | change of intratumor human VEGF protein levels vs vehicle ([3]; HT1080 xenograft, 200 mg/kg orally) | intratumor hVEGF ([3]; HT1080 xenograft, 200 mg/kg, oral, mean +/- SD, n = 10) | tumor growth reduced ([4]; 200 mg/kg orally, twice per day, after 7 days of treatment) | CC50 at 3 days ([1]; read-out: PBMC cytoxtoxicity CC50) | VEGF UTR specificity [2] | effect on intratumor VEGF in HT1080 tumors ([3]; 50 mg/kg, oral) | time for tumors to reach an average volume of 1 cm^3 ([4]; 10 mg/kg, oral, vehicle 15 days) | tumor growth delay ([4]; 10 mg/kg, oral, vs vehicle) | mice with tumors that remained too small to measure (<50 mm^3) ([4]; 50 mg/kg group, 3/7 mice, on study more than 90 days) | time for tumors to reach 1 cm^3 ([4]; 50 mg/kg, oral, dosing stopped at 50 days) | effect of prolonged treatment on tumor growth ([4]; oral, 10 and 50 mg/kg)
Brc1ccc2[nH]c3c(c2c1)CCCC3n1cccc1 (stereo not shown) [PTC-858, 6-bromo-1-(1H-pyrrol-1-yl)-2,3,4,9-tetrahydro-1H-carbazole] | > 30 µM | greater than 2 log | significant reduction of intratumor human VEGF protein levels | 127.5 ± 108.6 pg/mg total tumor proteins | 25% | – | – | – | – | – | – | – | –
COc1ccc(C2c3[nH]c4ccc(Br)cc4c3CC3C(=O)N(C4CCCCC4)C(=S)N32)cc1.O=C(O)C(F)(F)F (stereo not shown) [PTC-510, 9-bromo-2-cyclohexyl-5-(4-methoxyphenyl)-3-thioxo-2,3,5,6,11,11a-hexahydro-1H-imidazo[1’,5’:1,6]pyrido[3,4-b]indol-1-one trifluoroacetate] | – | – | – | – | – | > 30 µM | yes | selectively inhibited production of intratumor VEGF | about 40 days | 25 days | 43% | > 50 days | reduced tumor growth significantly in a dose-dependent fashion
